# Measurements taken from patent US11339171B2, “MDM2 inhibitors” (Gan & Lee Pharmaceuticals, priority 2017, dated 2022).
# Like-named read-outs stand apart in the source and are kept apart here.
# Key:
# [1] = system: human osteosarcoma cell line SJSA-1; assay: Inhibition of proliferation of human osteosarcoma cell line SJSA-1 (DAPI staining, In Cell Analyzer); conditions: for inhibitory effect on human osteosarcoma cell line SJSA-1 compared with positive control compound HDM201: labels are Example numbers, the compounds with S-configuration are meant
# MDM2 = molecular target: T1, MDM2 (Homo sapiens, UniProt Q00987); assay: Inhibition test of MDM2-P53 (GST-MDM2, Biotin-P53, Anti-GST-Tb, SA-XL665); type: binding
# T1 construct: made in house
# Procedure, shortened: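 Compounds, serially diluted 5-fold (twelve concentrations), were shaken for 90 min at 25° C with a mix of GST-MDM2 (4 nM final), Biotin-P53, anti-GST-Tb and SA-XL665. Buffer: 1×PBS, 0.1% BSA, 5 mM DTT, 1 mM AEBSF; signal read on a microplate reader.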
# T1 sequence (Q00987 whole entry): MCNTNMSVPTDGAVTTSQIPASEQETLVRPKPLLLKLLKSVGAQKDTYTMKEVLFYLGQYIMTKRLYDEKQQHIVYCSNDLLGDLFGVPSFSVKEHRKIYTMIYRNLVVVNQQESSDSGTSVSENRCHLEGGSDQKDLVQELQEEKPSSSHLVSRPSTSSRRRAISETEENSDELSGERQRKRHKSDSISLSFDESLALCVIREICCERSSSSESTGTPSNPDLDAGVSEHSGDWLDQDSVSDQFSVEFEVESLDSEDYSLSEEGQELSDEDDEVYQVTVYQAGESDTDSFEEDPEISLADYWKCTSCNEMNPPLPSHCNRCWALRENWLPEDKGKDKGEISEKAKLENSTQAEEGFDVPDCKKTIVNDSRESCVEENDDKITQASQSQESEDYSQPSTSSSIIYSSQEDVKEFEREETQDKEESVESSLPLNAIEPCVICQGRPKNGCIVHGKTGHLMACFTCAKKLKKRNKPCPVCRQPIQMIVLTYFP
smiles,measurement,setting,value
"COc1nc(C2CC2)ncc1-c1nc2c(n1C(C)C)C1(C(=O)Nc3cc(Cl)ccc31)N(c1cc(Cl)ccc1C)C2=O (stereo not drawn) [Example 121, 6-chloro-5′-(5-chloro-2-methylphenyl)-2′-(2-cyclopropyl-4-methoxypyrimidin-5-yl)-3′-isopropyl-3′H-spiro[dihydroindole-3,4′-pyrrolo[3,4-d]imidazole]-2,6′(5′H)-dione]",inhibitory effect on human osteosarcoma cell line SJSA-1 compared with positive control compound HDM201,[1],better
"COc1cc(C2CC2)ncc1-c1nc2c(n1C(C)C)C1(C(=O)Nc3cc(Cl)ccc31)N(c1cccc(Cl)c1)C2=O (stereo not drawn) [Example 106, 6-chloro-5′-(3-chlorophenyl)-2′-(6-cyclopropyl-4-methoxypyridin-3-yl)-3′-isopropyl-3′H-spiro[dihydroindole-3,4′-pyrrolo[3,4-d]imidazole]-2,6′(5′H)-dione]",inhibitory effect on human osteosarcoma cell line SJSA-1 compared with positive control compound HDM201,[1],better
"COc1nc(OCC(F)(F)F)ncc1-c1nc2c(n1C(C)C)C1(C(=O)Nc3cc(Cl)ccc31)N(c1cc(Cl)ccc1C)C2=O (stereo not drawn) [Example 141, 6-chloro-5′-(5-chloro-2-methylphenyl)-3′-isopropyl-2′-(4-methoxy-2-(2,2,2-trifluoroethoxy)pyrimidin-5-yl)-3′H-spiro[dihydroindole-3,4′-pyrrolo[3,4-d]imidazole]-2,6′(5′H)-dione]",inhibitory effect on human osteosarcoma cell line SJSA-1 compared with positive control compound HDM201,[1],better
"COc1nc(C(C)C)ncc1-c1nc2c(n1C(C)C)C1(C(=O)Nc3cc(Cl)ccc31)N(c1cc(Cl)ccc1C)C2=O (stereo not drawn) [Example 172, 6-chloro-5′-(5-chloro-2-methylphenyl)-3′-isopropyl-2′-(2-isopropyl-4-methoxypyrimidin-5-yl)-3′H-spiro[dihydroindole-3,4′-pyrrolo[3,4-d]imidazole]-2,6′(5′H)-dione]",inhibitory effect on human osteosarcoma cell line SJSA-1 compared with positive control compound HDM201,[1],better
"COc1nc(N(C)C)ccc1-c1nc2c(n1C(C)C)C1(C(=O)Nc3cc(Cl)ccc31)N(c1cc(Cl)ccc1C)C2=O (stereo not drawn) [Example 157, 6-chloro-5′-(5-chloro-2-methylphenyl)-2′-(6-(dimethylamino)-2-methoxypyridin-3-yl)-3′-isopropyl-3′H-spiro[dihydroindole-3,4′-pyrrolo[3,4-d]imidazole]-2,6′(5′H)-dione]",inhibitory effect on human osteosarcoma cell line SJSA-1 compared with positive control compound HDM201,[1],better
"CCOc1ccc(-c2nc3c(n2C(C)C)C2(C(=O)Nc4cc(Cl)ccc42)N(c2cc(Cl)ccc2C)C3=O)c(OC)n1 (stereo not drawn) [Example 146, 6-chloro-5′-(5-chloro-2-methylphenyl)-2′-(6-ethoxy-2-methoxypyridin-3-yl)-3′-isopropyl-3′H-spiro[dihydroindole-3,4′-pyrrolo[3,4-d]imidazole]-2,6′(5′H)-dione]",inhibitory effect on human osteosarcoma cell line SJSA-1 compared with positive control compound HDM201,[1],better
CNc1ccc(-c2nc3c(n2C(C)C)C2(C(=O)Nc4cc(Cl)ccc42)N(c2cc(Cl)ccc2C)C3=O)c(OC)c1 (stereo not drawn) [Example 25],inhibitory effect on human osteosarcoma cell line SJSA-1 compared with positive control compound HDM201,[1],better
CCOc1ncc(-c2nc3c(n2C(C)C)C2(C(=O)Nc4cc(Cl)ccc42)N(c2cc(Cl)ccc2C)C3=O)c(OC)n1 (stereo not drawn) [Example 127],inhibitory effect on human osteosarcoma cell line SJSA-1 compared with positive control compound HDM201,[1],better
"COc1cc(C2CC2)cc(OC)c1-c1nc2c(n1C(C)C)C1(C(=O)Nc3cc(Cl)ccc31)N(c1cc(Cl)ccc1C)C2=O (stereo not drawn) [Example 108, 6-chloro-5′-(5-chloro-2-methylphenyl)-2′-(4-cyclopropyl-2,6-dimethoxyphenyl)-3′-isopropyl-3′H-spiro[dihydroindole-3,4′-pyrrolo[3,4-d]imidazole]-2,6′(5′H)-dione]",inhibitory effect on human osteosarcoma cell line SJSA-1 compared with positive control compound HDM201,[1],better
"COc1nc(C2CC2)ncc1-c1nc2c(n1C(C)C)C1(C(=O)Nc3cc(Cl)ccc31)N(c1cc(Cl)cnc1C)C2=O (stereo not drawn) [Example 159, 6-chloro-5′-(5-chloro-2-methylpyridin-3-yl)-2′-(2-cyclopropyl-4-methoxypyrimidin-5-yl)-3′-isopropyl-3′H-spiro[dihydroindole-3,4′-pyrrolo[3,4-d]imidazole]-2,6′(5′H)-dione]",inhibitory effect on human osteosarcoma cell line SJSA-1 compared with positive control compound HDM201,[1],better
"CCN(C)c1ncc(-c2nc3c(n2C(C)C)C2(C(=O)Nc4cc(Cl)ccc42)N(c2cc(Cl)ccc2C)C3=O)c(OC)n1 (stereo not drawn) [Example 119, 6-chloro-5′-(5-chloro-2-methylphenyl)-2′-(2-(ethyl(methyl)amino)-4-methoxypyrimidin-5-yl)-3′-isopropyl-3′H-spiro[dihydroindole-3,4′-pyrrolo[3,4-d]imidazole]-2,6′(5′H)-dione]",inhibitory effect on human osteosarcoma cell line SJSA-1 compared with positive control compound HDM201,[1],better
"CCc1ccc(-c2nc3c(n2C(C)C)C2(C(=O)Nc4cc(Cl)ccc42)N(c2cc(Cl)ccc2C)C3=O)c(OC)c1 (stereo not drawn) [Example 33, 6-chloro-5′-(5-chloro-2-methylphenyl)-2′-(4-ethyl-2-methoxyphenyl)-3′-isopropyl-3′H-spiro[dihydroindole-3,4′-pyrrolo[3,4-d]imidazole]-2,6′(5′H)-dione]",inhibitory effect on human osteosarcoma cell line SJSA-1 compared with positive control compound HDM201,[1],better
"COc1ccc(-c2nc3c(n2C(C)C)[C@@]2(C(=O)Nc4cc(Cl)ccc42)N(c2cccc(Cl)c2)C3=O)c(OC)c1 [Example S-36, (S)-6-chloro-5′-(3-chlorophenyl)-2′-(2,4-dimethoxyphenyl)-3′-isopropyl-3′H-spiro[dihydroindole-3,4′-pyrrolo[3,4-d]imidazole]-2,6′(5′H)-dione]",IC50,"[1]; Homo sapiens, SJSA-1, 72 h, read-out: IC50 (nM), inhibitory activity on proliferation of human osteosarcoma cell line SJSA-1, SJSA-1, incubated 72 h",83.8 nM
same,IC50,"[1]; read-out: IC50 (nM), inhibitory activity on proliferation of human osteosarcoma cell line SJSA-1, SJSA-1, incubated 72 h",72.3 nM
"COc1cc(N(C)C)ccc1-c1nc2c(n1C(C)C)C1(C(=O)Nc3cc(Cl)ccc31)N(c1cc(Cl)ccc1C)C2=O (stereo not drawn) [Example 23, 6-chloro-5′-(5-chloro-2-methylphenyl)-2′-(4-(dimethylamino)-2-methoxyphenyl)-3′-isopropyl-3′H-spiro[dihydroindole-3,4′-pyrrolo[3,4-d]imidazole]-2,6′(5′H)-dione]",inhibitory effect on human osteosarcoma cell line SJSA-1 compared with positive control compound HDM201,[1],better
"CCN(C)c1ccc(-c2nc3c(n2C(C)C)C2(C(=O)Nc4cc(Cl)ccc42)N(c2cc(Cl)ccc2C)C3=O)c(OC)c1 (stereo not drawn) [Example 99, 6-chloro-5′-(5-chloro-2-methylphenyl)-2′-(4-(ethyl(methyl)amino)-2-methoxyphenyl)-3′-isopropyl-3′H-spiro[dihydroindole-3,4′-pyrrolo[3,4-d]imidazole]-2,6′(5′H)-dione]",inhibitory effect on human osteosarcoma cell line SJSA-1 compared with positive control compound HDM201,[1],better
"COc1ccc(-c2nc3c(n2C(C)C)C2(C(=O)Nc4cc(Cl)ccc42)N(c2cc(Cl)ccc2C)C3=O)c(OC)c1 (stereo not drawn) [Example 9, 6-chloro-5′-(5-chloro-2-methylphenyl)-2′-(2,4-dimethoxyphenyl)-3′-isopropyl-3′H-spiro[dihydroindole-3,4′-pyrrolo[3,4-d]imidazole]-2,6′(5′H)-dione]",inhibitory effect on human osteosarcoma cell line SJSA-1 compared with positive control compound HDM201,[1],better
"COc1cc(C(C)(C)C)ccc1-c1nc2c(n1C(C)C)C1(C(=O)Nc3cc(Cl)ccc31)N(c1cc(Cl)ccc1C)C2=O (stereo not drawn) [Example 101, 2′-(4-(tert-butyl)-2-methoxyphenyl)-6-chloro-5′-(5-chloro-2-methylphenyl)-3′-isopropyl-3′H-spiro[dihydroindole-3,4′-pyrrolo[3,4-d]imidazole]-2,6′(5′H)-dione]",inhibitory effect on human osteosarcoma cell line SJSA-1 compared with positive control compound HDM201,[1],better
"COc1cc(N(C)C)c(C)cc1-c1nc2c(n1C(C)C)C1(C(=O)Nc3cc(Cl)ccc31)N(c1cc(Cl)ccc1C)C2=O (stereo not drawn) [Example 91, 6-chloro-5′-(5-chloro-2-methylphenyl)-2′-(4-(dimethylamino)-2-methoxy-5-methylphenyl)-3′-isopropyl-3′H-spiro[dihydroindole-3,4′-pyrrolo[3,4-d]imidazole]-2,6′(5′H)-dione]",inhibitory effect on human osteosarcoma cell line SJSA-1 compared with positive control compound HDM201,[1],better
"COc1cc(C(C)C)ccc1-c1nc2c(n1C(C)C)[C@@]1(C(=O)Nc3cc(Cl)ccc31)N(c1cccc(Cl)c1)C2=O [Example S-93, (S)-6-chloro-5′-(3-chlorophenyl)-3′-isopropyl-2′-(4-isopropyl-2-methoxyphenyl)-3′H-spiro[dihydroindole-3,4′-pyrrolo[3,4-d]imidazole]-2,6′(5′H)-dione]",IC50,MDM2,3.89 nM
"COc1ncncc1-c1nc2c(n1C(C)C)[C@]1(C(=O)Nc3cc(Cl)ccc31)N(c1cc(Cl)ccc1C)C2=O [Example R-27, (R)-6-chloro-5′-(5-chloro-2-methylphenyl)-3′-isopropyl-2′-(4-methoxypyrimidin-5-yl)-3′H-spiro[dihydroindole-3,4′-pyrrolo[3,4-d]imidazole]-2,6′(5′H)-dione]",IC50,MDM2,924 nM
"COc1ncc(-c2nc3c(n2C(C)C)[C@]2(C(=O)Nc4cc(Cl)ccc42)N(c2ccc(C(N)=O)c(Cl)c2)C3=O)c(OC)n1 [Example R-60, (R)-2-chloro-4-(6-chloro-2′-(2,4-dimethoxypyrimidin-5-yl)-3′-isopropyl-2,6′-dioxo-3′,6′-dihydro-5′H-spiro[dihydroindole-3,4′-pyrrolo[3,4-d]imidazole]-5′-yl)benzamide]",IC50,MDM2,1070 nM
"COc1nc(OCCF)ncc1-c1nc2c(n1C(C)C)[C@]1(C(=O)Nc3cc(Cl)ccc31)N(c1cccc(Cl)c1)C2=O [Example R-171, (R)-6-chloro-5′-(3-chlorophenyl)-2′-(2-(2-fluoroethoxy)-4-methoxypyrimidin-5-yl)-3′-isopropyl-3′H-spiro[dihydroindole-3,4′-pyrrolo[3,4-d]imidazole]-2,6′(5′H)-dione]",IC50,MDM2,8830 nM
"CCc1ccc(OC)c(-c2nc3c(n2C(C)C)[C@]2(C(=O)Nc4cc(Cl)ccc42)N(c2cccc(Cl)c2)C3=O)c1 [Example R-38, (R)-6-chloro-5′-(3-chlorophenyl)-2′-(5-ethyl-2-methoxyphenyl)-3′-isopropyl-3′H-spiro[dihydroindole-3,4′-pyrrolo[3,4-d]imidazole]-2,6′(5′H)-dione]",IC50,MDM2,1120 nM
